Assay results taken from patent US20120010075A1 (priority 2009, published 2012).
Read-outs that look alike come from different tables or passages of the source.

Legend:
[1] = tested on: Leptosphaeria nodorum (LEPTNO); experiment: In vitro fungitoxicity of hydrazones with and without copper towards Leptosphaeria nodorum (Example 26); type: cell-based; conditions: 72 h at 25° C.; for inhibition of growth at 0.05 µg/mL: Parastagonospora nodorum, 72 h, copper-minus medium, read-out: LEPTNO % Inhn. Minus Copper Observed
[2] = tested on: Septoria tritici isolate USA-184; experiment: In vitro fungitoxicity of hydrazones with and without copper towards Septoria tritici (Example 30, Table 5); type: cell-based; conditions: Zymoseptoria tritici, 0.05 μg/mL
[3] = tested on: Ustilago maydis; experiment: In vitro fungitoxicity of hydrazones with and without copper towards Ustilago maydis (Example 29, Table 4); type: cell-based; conditions: 1 μg/mL, 48 h; for % Inhn. Plus copper Observed: copper-plus medium (CuCl2, 10 μM); for inhibition of growth at 1 µg/mL: Mycosarcoma maydis, copper-minus medium, read-out: % Inhn. Minus copper Observed
[4] = tested on: Leptosphaeria nodorum (LEPTNO); experiment: Isolated metal-hydrazone complexes versus parent hydrazones, in vitro, Leptosphaeria nodorum (Example 31, Table 7); type: cell-based; conditions: Parastagonospora nodorum; 0.1 μg/mL; copper-minus medium; 72 h
[5] = tested on: Phytophthora capsici; experiment: In vitro fungitoxicity of hydrazones with and without copper towards Phytophthora capsici (Example 28, Table 3); type: cell-based; conditions: 0.050 μg/mL, 48 h; for % Inhn Plus copper Observed: copper-plus AS medium (CuCl2, 50 μM); for inhibition of growth at 0.05 µg/mL: Phytophthora capsici, copper-minus AS medium, read-out: % Inhn Minus copper Observed
[6] = tested on: Phytophthora infestans; type: in vivo, Phytophthora infestans on tomato; conditions: applied 24 h before inoculation, assessed 7 days after inoculation
[7] = compound 0.05 μg/mL, copper-plus medium (CuCl2.2H2O)
[8] = Colby formula, CuCl2, read-out: % Inhibition Plus copper Predicted
[9] = copper-minus medium, 90 h, read-out: % Inhibition Minus copper Observed
[10] = copper-plus medium CuCl2, 90 h, read-out: % Inhibition Plus copper Observed
[11] = hydrazone 50 ppm + 50 μM CuCl2.2H2O, tomato
[12] = test compound Concn. 0.05 μg/mL
[13] = copper-plus medium (CuCl2 10 μM), test compound Concn. 0.05 μg/mL
[14] = hydrazone 50 ppm with 50 μM CuCl2.2H2O, tomato late blight

| Structure (SMILES) | inhibition of growth at 0.05 µg/mL ([1]; compound 0.05 μg/mL) [%] | LEPTNO % Inhn. Plus Copper Observed [1, 7] [%] | inhibition at 0.05 µg/mL [2, 8] [%] | inhibition at 0.05 µg/mL [2, 9] [%] | inhibition at 0.05 µg/mL [2, 10] [%] | % Inhn. Plus copper Observed [3] [%] | inhibition of growth at 1 µg/mL [3] [%] | inhibition at 0.1 µg/mL [4] [%] | melting point [°C] | % Inhn Plus copper Observed [5] [%] | inhibition of growth at 0.05 µg/mL [5] [%] | TLB % Control [6, 11] [%] | inhibition of growth at 0.05 µg/mL [1, 12] [%] | LEPTNO % Inhn. Plus Copper Observed [1, 13] [%] | TLB % Control [6, 14] [%] |
| --- | --- | --- | --- | --- | --- | --- | --- | --- | --- | --- | --- | --- | --- | --- | --- |
| O=C(N/N=C/c1cc(C(F)(F)F)ccc1O)c1ccccc1 [Example 277] | 1.9 | 97.5 | 3.6 | 3.6 | 88 | 83.5 | 1.7 | 0.6 | 214 to 217 | 88.2 | 0 | 86.4 | – | – | – |
| O=C(N/N=C/c1cc(Br)cc(F)c1O)c1ccc(C(F)(F)F)cc1 [Example 412] | – | – | – | – | – | – | – | 40.4 | 240 to 241 | – | – | – | 7.7 | 97.8 | 100.0 |
| O=C(N/N=C/c1cc(C(F)(F)F)cc(C(F)(F)F)c1O)c1ccc(Cl)cc1 [Example 337] | – | – | 46.8 | 46.8 | 97.1 | 97.8 | 22 | 39.9 | 233 to 236 | 42.1 | 4.7 | – | 22.4 | 98.0 | 97.0 |
| O=C(N/N=C/c1c(Cl)ccc(Cl)c1O)c1ccc(Cl)cc1 [Example 370] | – | – | – | – | – | – | – | 23.1 | 271 to 273 | – | – | – | 3.5 | 97.5 | 91.0 |
| O=C(N/N=C/c1ccc(Cl)c(Cl)c1O)c1ccc(Cl)cc1 [Example 359] | – | – | – | – | – | – | – | 24.1 | 260 to 262 | – | – | – | 41.4 | 97.3 | 92.0 |
| COc1cccc(/C(C)=N/NC(=O)c2ccccc2)c1O [Example 299] | – | – | – | – | – | – | – | 18.6 | 146 to 148 | – | – | – | 0 | 97.9 | 74.0 |
| O=C(N/N=C/c1c(O)cccc1Cl)c1ccc(Cl)cc1 [Example 403] | – | – | – | – | – | – | – | 12.1 | 273 to 277 | – | – | – | 0 | 97.3 | 97.0 |
| C/C(=N\NC(=O)c1cccc(Cl)c1)c1cc(Cl)cc(Cl)c1O [Example 135] | 0.2 | 98.6 | – | – | – | – | – | 20.6 | 245 to 246 | – | – | 96.0 | – | – | – |
| COc1cccc(/C(C)=N/NC(=O)c2ccc(C)cc2)c1O [Example 302] | – | – | – | – | – | – | – | 22.9 | 146 to 148 | – | – | – | 0 | 96.4 | 82.0 |
| C/C(=N\NC(=O)c1ccccc1C)c1cc(Cl)cc(Cl)c1O [Example 137] | 4.5 | 98.5 | – | – | – | – | – | 27.2 | 226 to 230 | – | – | 74.0 | – | – | – |
| C/C(=N\NC(=O)c1ccccc1)c1cc(Cl)cc(Cl)c1O [Example 60] | 7.3 | 97.5 | 20.6 | 20.6 | 94.8 | 93.5 | 0 | 23.3 | – | 76.4 | 4.1 | 85.0 | – | – | – |
| O=C(N/N=C/c1cccc(Cl)c1O)c1ccc(Cl)cc1 [Example 428] | – | – | – | – | – | – | – | 29.9 | 217 to 219 | – | – | – | 44.1 | 98.4 | 97.0 |
| COc1cccc(/C(C)=N/NC(=O)c2ccccc2C)c1O [Example 300] | – | – | – | – | – | – | – | 2.5 | 208 to 209 | – | – | – | 0 | 97.2 | 70.0 |
| O=C(N/N=C/c1c(O)cccc1Cl)c1ccccc1 [Example 236] | 3.5 | 97.0 | – | – | – | – | – | 4.7 | 247 to 248 | – | – | 88.1 | – | – | – |
| C/C(=N\NC(=O)c1ccc(C)cc1)c1cc(Cl)cc(Cl)c1O [Example 279] | 5.1 | 98.6 | – | – | – | – | – | 19.9 | 262 to 264 | – | – | 96.0 | – | – | – |
| O=C(N/N=C/c1cc(Cl)cc(C(F)(F)F)c1O)c1ccccc1 [Example 320] | – | – | 9.5 | 9.5 | 92.1 | 95.2 | 0 | 22.1 | 225 to 226 | 81.4 | 2.9 | – | 17.1 | 96.4 | 100.0 |
| C/C(=N\NC(=O)c1cccc(C)c1)c1cc(Cl)cc(Cl)c1O [Example 278] | 1.7 | 97.7 | – | – | – | – | – | 16.2 | 221 to 223 | – | – | 90.0 | – | – | – |
| O=C(N/N=C/c1cc(Cl)ccc1O)c1ccccc1 [Example 20] | 2.8 | 96.5 | 0 | 0 | 95.3 | 91.0 | 1.2 | 14.7 | – | 90.4 | 2.1 | 96.5 | – | – | – |
| COc1cccc(/C(C)=N/NC(=O)c2ccc(Cl)cc2)c1O [Example 305] | – | – | – | – | – | – | – | 27.1 | 168 to 170 | – | – | – | 0.5 | 98.3 | 61.0 |
| O=C(N/N=C/c1cccc(C(F)(F)F)c1O)c1ccc(Cl)cc1 [Example 348] | – | – | – | – | – | – | – | 23.9 | 215 to 216 | – | – | – | 16.3 | 98.3 | 100.0 |
